Experimental data reported in US4492698A, “Diphenylbutyl-1-acylpiperazines” (priority 1980, dated 1985).
Where a name gives a salt, the structure may show the parent alone. Read-outs that look alike come from different tables or passages of the source.

Key:
male NMRI mice [1] = assay: isolation-induced aggressive behaviour; assay type: in vivo; settings: Mus musculus, sc, read-out: ED50 (dose inhibiting aggressive behaviour among 50 percent of the pairs)
Text: Male mice subjected to prolonged isolation develop aggressive behaviour against each other when paired (Yen, C. Y. et al., Arch. Int. Pharmacodyn. 123, 179, (1959); Valzelli, L., Adv. Pharmacol. 5, 79 (1967)). […] The clinical correlation of this test indicates tranquillizing and anxiolytic activities as well as antiaggressive properties as such (Duncan, R. L. et al., J. Med. Chem. 13, 1 (1970)).
This type of aggression is interesting because it is known that this kind of emotional behaviour might be located in limbic structures in the brain (MacLean, P. D., Psychosom. Med. 11, 338 (1949)).
Every week male NMRI mice, weighing 20-22 g, were isolated in Makrolon cages for three weeks with diet and water ad libitum. A piece of cardboard was placed between the cages to prevent visual contact.
To test aggressiveness the mice were paired in a neutral area, a beaker (14 cm high and diameter 14 cm). A pair is considered aggressive if both the animals show clear signs of fighting within 5 min. This fighting is characterized by biting and vocalization. As soon as fighting is seen, the mice are separated and brought to their home cage. […] Animals showing no aggression are discarded. […] The test substance is administered s.c. (0.2-0.4 ml/20 g). The mice are paired 0.5 h after the injection for trials of 5 min. duration.
The ED50 -value (mg/kg) reported is the dose inhibiting aggressive behaviour among 50 percent of the pairs 0.5 hour after drug administration.

[2] = system: male hooded Long-Evans rats; assay: spontaneous mouse-killing (muricide) by rats; assay type: in vivo, rat (hooded Long-Evans); settings: for ED50: Rattus norvegicus, sc
Text: For the purpose of detecting new psychotropic substances with antiaggressive properties, pharmacologist have used several different models. One model used, the mouse-killing (muricide) by rats (Vogel, J. R. in Industrial Pharmacology, Vol. 2, Antidepressants, Stuart, F. and Lal, H., Ed., Futura Publishing Company, 1975, p. 99), is based on an existing interspecies aggression (Karli, P., Behaviour 10, 81 (1956)). This form of aggressive behaviour which is considered to be of predatory nature, is physiologically and topographically different from other forms of aggression (O'Boyle, M., Psychol. Bull. 81, 261 (1974)). Mousekilling is a spontaneous behaviour in some rat strains e.g. male hooded Long-Evans rats.
Male hooded Long-Evans rats placed in individual cages were used. By testing a number of rats, a colony of rats was obtained that killed a mouse whenever introduced into the rats' cage, by biting the mouse through the cervical spinal cord.
Each rat was tested for mouse-killing behaviour (killing a mouse within 5 minutes) prior to each experiment, thus serving as its own positive control. For each dose level 6 positive rats were selected and the test substance was administered by subcutaneous injection. Doses were selected to form a dose-response curve and the […] (ED50, mg/kg) was calculated by means of linear regression. The rats were tested at 1, and 2 hours after being injected subcutaneously. [drawing 9]

mice (NMRI) = assay: writhing test (acetic acid), analgetic properties; assay type: in vivo; settings: Mus musculus, sc, 20 min before acetic acid i.p.; female mice; read-out: ED50 (dose blocking the writhing behaviour in 50% of the animals)
Experimental: The writhing test is a frequently used test of analgetic properties (Witkin, L. B. et al., J. Pharmacol. Exp. Ther. 133, 400 (1961)). If acetic acid (0.5%, 15 ml/kg) is injected intraperitoneally in mice (NMRI) they will without exception develop a writhing behaviour characterized by stretching their hind legs. The drugs to be tested were administered subcutaneously to 6 female mice at each dose 20 min. before the injection of the acetic acid. After 10 min. The behaviour of the mice was studied in 5 min. The ED50 value is the dose blocking the writhing behaviour in 50% of the animals during the 5 min. study period.

male NMRI mice [3] = settings: general statement on the test; cited from earlier work
[4] = 0.5 hour after drug administration
[5] = 1 hr after injection, read-out: ED50, spontaneous mouse-killing, 1 hr
[6] = read-out: ED50, spontaneous mouse-killing, s.c., 2 hr after injection

| SMILES | ED50 (male NMRI mice [1]; [4]) [mg/kg] | ED50 [2, 5] [mg/kg] | ED50 [2, 6] [mg/kg] | ED50 (mice (NMRI)) [mg/kg] | further results |
| --- | --- | --- | --- | --- | --- |
| CN(C)CCC=C1c2ccccc2CCc2ccccc21 [Amitriptyline] | 5 | > 10 | 6.4 | – | – |
| CC(=O)N1CCN(CCCC(c2ccc(F)cc2)c2ccc(F)cc2)CC1 [B, 1-acetyl-4-[4,4-(di-fluorophenyl)butyl]piperazine] | 10 | > 10 | > 10 | – | pharmacological properties compared with compounds I ([2]; versus compounds I of the invention, in the tests of the application): inferior to the compounds I of the present invention |
| CN(C)CCCN1c2ccccc2Sc2ccc(Cl)cc21 [Chlorpromazine] | – | – | – | – | ED50 (male NMRI mice [1]; 0.5 h): 1.4 mg/kg |
| CCC(=O)N1CCN(CCCC(c2ccc(F)cc2)c2ccc(F)cc2)CC1 [Compound 1, 1-Ethylcarbonyl-4-[4,4-(di-p-fluorophenyl)butyl]-piperazine hydrochloride] | 2.8 | 1 | 1.8 | 0.5 | – |
| CC(C)C(=O)N1CCN(CCCC(c2ccc(F)cc2)c2ccc(F)cc2)CC1 [Compound 2] | – | – | – | 1.1 | – |
| O=C(C1CC1)N1CCN(CCCC(c2ccc(F)cc2)c2ccc(F)cc2)CC1 [Compound 3] | 1.4 | 2.6 | 3.7 | 0.8 | – |
| CCC(=O)N1CC(C)N(CCC(c2ccccc2)c2ccccc2)CC1C (stereo not shown) [Compound A1] | – | – | – | 4.2 | – |
| CN1C(=O)CN=C(c2ccccc2)c2cc(Cl)ccc21 [Diazepam] | – | – | – | – | activity on isolation-induced aggressive behaviour (male NMRI mice [3]): active |
